Results: patent publication US20070010671A1, “Novel quinazoline derivatives and methods of treatment related to the use thereof” (priority 2003, published 2007)

biological target: MCH receptor (Homo sapiens, UniProt Q99705); assay: High throughput functional screening FLIPR/FDSS6000: inhibition of MCH-evoked intracellular Ca2+ changes; assay type: cell-based; conditions: class by percent of control at 10^-7 M or IC50
In short: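 Seed cells the day before, then load them with Fluo4-AM for one hour at 37° C and wash in HEPES-buffered HBSS, pH 7.4. Add compound for 3 min, then stimulate with 50 nM MCH. Monitor the calcium transient for 290 s.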

| Structure (SMILES) | class |
| --- | --- |
| CN(C)c1nc(N[C@H]2CC[C@@H](NC(=S)Nc3c(Cl)cc(Cl)cc3Cl)CC2)nc2ccccc12 [compound 246, N-(cis-4-{[4-(dimethylamino)quinazolin-2-yl]amino}cyclohexyl)-N′-(2,4,6-trichlorophenyl)thiourea] | 1 (Class 1: The value of percent of control at 10^−7 M was less than 40% or the value of IC50 was less than 50 nM.) |
| CN(C)c1nc(N[C@H]2CC[C@@H](NC(=S)Nc3ccc(N4CCOCC4)nc3)CC2)nc2ccccc12 [compound 403] | 3 (Class 3: The value of percent of control at 10^−7 M was more than 60% or the value of IC50 was more than 200 nM.) |
| CCCCOc1ccc(NC(=O)NC[C@H]2CC[C@@H](Nc3nc(N(C)C)c4ccccc4n3)CC2)cc1 [compound 560] | 3 (Class 3: The value of percent of control at 10^−7 M was more than 60% or the value of IC50 was more than 200 nM.) |
| Cc1ccc(NC(=O)NC[C@H]2CC[C@@H](Nc3nc(N(C)C)c4ccccc4n3)CC2)c([N+](=O)[O-])c1 [compound 445, N-[(cis-4-{[4-(dimethylamino)quinazolin-2-yl]amino}cyclohexyl)methyl]-N′-(4-methyl-2-nitrophenyl)urea] | 2 (Class 2: The value of percent of control at 10^−7 M was from 40% to 60% or the value of IC50 was from 50 nM to 200 nM.) |
| CN(C)c1nc(N[C@H]2CC[C@@H](CNC(=S)Nc3cccc(Cl)c3)CC2)nc2ccccc12 [compound 587] | 3 (Class 3: The value of percent of control at 10^−7 M was more than 60% or the value of IC50 was more than 200 nM.) |
| CN(C)c1nc(N[C@H]2CC[C@@H](CNC(=O)NC3CCCCC3)CC2)nc2ccccc12 [compound 417, N-cyclohexyl-N′-[(cis-4-{[4-(dimethylamino)quinazolin-2-yl]amino}cyclohexyl)methyl]urea] | 2 (Class 2: The value of percent of control at 10^−7 M was from 40% to 60% or the value of IC50 was from 50 nM to 200 nM.) |
| CN(C)c1nc(N[C@H]2CC[C@@H](CNC(=S)Nc3ccc(S(=O)(=O)N4CCCCC4)cc3)CC2)nc2ccccc12 [compound 778] | 3 (Class 3: The value of percent of control at 10^−7 M was more than 60% or the value of IC50 was more than 200 nM.) |
| Cc1cc(Br)ccc1NC(=S)NC[C@H]1CC[C@@H](Nc2nc(N(C)C)c3ccccc3n2)CC1 [compound 692] | 3 (Class 3: The value of percent of control at 10^−7 M was more than 60% or the value of IC50 was more than 200 nM.) |
| Cc1cc(Cl)cc(Cl)c1NC(=S)N[C@H]1CC[C@@H](Nc2nc(N(C)C)c3ccccc3n2)CC1 [compound 361, N-(2,4-dichloro-6-methylphenyl)-N′-(cis-4-{[4-(dimethylamino)quinazolin-2-yl]amino}cyclohexyl)thiourea] | 1 (Class 1: The value of percent of control at 10^−7 M was less than 40% or the value of IC50 was less than 50 nM.) |
| Cc1onc(-c2ccccc2)c1NC(=O)NC[C@H]1CC[C@@H](Nc2nc(N(C)C)c3ccccc3n2)CC1 [compound 776] | 2 (Class 2: The value of percent of control at 10^−7 M was from 40% to 60% or the value of IC50 was from 50 nM to 200 nM.) |
| CCCCc1ccc(NC(=O)NC[C@H]2CC[C@@H](Nc3nc(N(C)C)c4ccccc4n3)CC2)c(C)c1 [compound 766] | 3 (Class 3: The value of percent of control at 10^−7 M was more than 60% or the value of IC50 was more than 200 nM.) |
| CCOc1ccccc1NC(=S)NC[C@H]1CC[C@@H](Nc2nc(N(C)C)c3ccccc3n2)CC1 [compound 786, N-[(cis-4-{[4-(dimethylamino)quinazolin-2-yl]amino}cyclohexyl)methyl]-N′-(2-ethoxyphenyl)thiourea] | 2 (Class 2: The value of percent of control at 10^−7 M was from 40% to 60% or the value of IC50 was from 50 nM to 200 nM.) |
| CC(NC(=S)NC[C@H]1CC[C@@H](Nc2nc(N(C)C)c3ccccc3n2)CC1)c1ccc(F)cc1 (relative stereo) [compound 697] | 2 (Class 2: The value of percent of control at 10^−7 M was from 40% to 60% or the value of IC50 was from 50 nM to 200 nM.) |
| Cc1cccc(C(C)C)c1NC(=O)NC[C@H]1CC[C@@H](Nc2nc(N(C)C)c3ccccc3n2)CC1 [compound 501] | 1 (Class 1: The value of percent of control at 10^−7 M was less than 40% or the value of IC50 was less than 50 nM.) |
| CSc1ccccc1NC(=O)NC[C@H]1CC[C@@H](Nc2nc(N(C)C)c3ccccc3n2)CC1 [compound 471, N-[(cis-4-{[4-(dimethylamino)quinazolin-2-yl]amino}cyclohexyl)methyl]-N′-[2-(methylthio)phenyl]urea] | 2 (Class 2: The value of percent of control at 10^−7 M was from 40% to 60% or the value of IC50 was from 50 nM to 200 nM.) |
| Cc1ccc(NC(=S)NC[C@H]2CC[C@@H](Nc3nc(N(C)C)c4ccccc4n3)CC2)c(C)c1 [compound 673] | 3 (Class 3: The value of percent of control at 10^−7 M was more than 60% or the value of IC50 was more than 200 nM.) |
| CN(C)c1nc(N[C@H]2CC[C@@H](NC(=S)Nc3ccc(N(C)C)c4ccccc34)CC2)nc2ccccc12 [compound 389, N-[4-(dimethylamino)-1-naphthyl]-N′-(cis-4-{[4-(dimethylamino)quinazolin-2-yl]amino}cyclohexyl)thiourea] | 1 (Class 1: The value of percent of control at 10^−7 M was less than 40% or the value of IC50 was less than 50 nM.) |
| CNC(=S)NC[C@H]1CC[C@@H](Nc2nc(N(C)C)c3ccccc3n2)CC1 [compound 610] | 3 (Class 3: The value of percent of control at 10^−7 M was more than 60% or the value of IC50 was more than 200 nM.) |
| Cc1onc(-c2ccccc2)c1NC(=O)N[C@H]1CC[C@@H](Nc2nc(N(C)C)c3ccccc3n2)CC1 [compound 355, N-(cis-4-{[4-(dimethylamino)quinazolin-2-yl]amino}cyclohexyl)-N′-(5-methyl-3-phenylisoxazol-4-yl)urea] | 1 (Class 1: The value of percent of control at 10^−7 M was less than 40% or the value of IC50 was less than 50 nM.) |
| CN(C)c1nc(N[C@H]2CC[C@@H](CNC(=S)Nc3ccc4c(c3)OCO4)CC2)nc2ccccc12 [compound 791] | 3 (Class 3: The value of percent of control at 10^−7 M was more than 60% or the value of IC50 was more than 200 nM.) |

same assay, conditions: class by percent of control at 10^-7 M or by IC50; read-out: class

| Structure (SMILES) | IC50 [nM] |
| --- | --- |
| CN(C)c1nc(N[C@H]2CC[C@@H](NC(=O)Nc3ccc(OCc4ccccc4)cc3)CC2)nc2ccccc12 [compound 139] | > 200 |
| CCOc1ccc(NC(=O)N[C@H]2CC[C@@H](Nc3nc(N(C)C)c4ccccc4n3)CC2)cc1 [compound 150, N-(cis-4-{[4-(dimethylamino)quinazolin-2-yl]amino}cyclohexyl)-N′-(4-ethoxyphenyl)urea] | 50 to 200 |
| COC(=O)c1cccc(NC(=O)N[C@H]2CC[C@@H](Nc3nc(N(C)C)c4ccccc4n3)CC2)c1 [compound 128, methyl 3-({[(cis-4-{[4-(dimethylamino)quinazolin-2-yl]amino}cyclohexyl)amino]carbonyl}amino)benzoate] | 50 to 200 |
| CN(C)c1nc(N[C@H]2CC[C@@H](NC(=O)Nc3ccccc3C(F)(F)F)CC2)nc2ccccc12 [compound 55, N-(cis-4-{[4-(dimethylamino)quinazolin-2-yl]amino}cyclohexyl)-N′-[2-(trifluoromethyl)phenyl]urea] | < 50 |
| CN(C)c1nc(N[C@H]2CC[C@@H](NC(=O)OCc3ccccc3Cl)CC2)nc2ccccc12 [compound 863] | 50 to 200 |
| Cc1ccc(NC(=O)N[C@H]2CC[C@@H](Nc3nc(N(C)C)c4ccccc4n3)CC2)cc1Cl [compound 64] | > 200 |
| CN(C)c1nc(N[C@H]2CC[C@@H](NC(=O)Nc3ccc(Cl)cc3C(F)(F)F)CC2)nc2ccccc12 [compound 145, N-[4-chloro-2-(trifluoromethyl)phenyl]-N′-(cis-4-{[4-(dimethylamino)quinazolin-2-yl]amino}cyclohexyl)urea] | < 50 |

same assay, conditions: class by percent of control at 10^−7 M or by IC50; read-out: class

| Structure (SMILES) | IC50 [nM] |
| --- | --- |
| CN(C)c1nc(N[C@H]2CC[C@@H](C(=O)NCc3ccc(F)c(F)c3F)CC2)nc2ccccc12 [Example 1169, cis-4-{[4-(dimethylamino)quinazolin-2-yl]amino}-N-(2,3,4-trifluorobenzyl)cyclohexanecarboxamide] | < 50 |
| CN(C)c1nc(N[C@H]2CC[C@@H](C(=O)NCc3cccc4ccccc34)CC2)nc2ccccc12 [Example 1154] | < 50 |
| CN(C)c1nc(NC[C@@H]2CC[C@H](NC(=O)c3ccc(F)cc3F)C2)nc2ccccc12 [Example 1133, N-[(1S,3R)-3-({[4-(dimethylamino)quinazolin-2-yl]amino}methyl)cyclopentyl]-2,4-difluorobenzamide] | > 200 |
| CN(C)c1nc(N[C@H]2CC[C@@H](C(=O)NCc3c(F)ccc(F)c3F)CC2)nc2ccccc12 [Example 1172, cis-4-{[4-(dimethylamino)quinazolin-2-yl]amino}-N-(2,3,6-trifluorobenzy)cyclohexanecarboxamide] | < 50 |
| CN(C)c1nc(N[C@H]2CC[C@@H](NC(=O)Nc3ccccc3Cl)CC2)nc2ccccc12 [Example 1011, N-(2-chlorophenyl)-N′-(cis-4-{[4-(dimethylamino)quinazolin-2-yl]amino}cyclohexyl)urea] | 50 to 200 |
| CN(C)c1nc(N[C@H]2CC[C@@H](C(=O)NCc3cccc(-c4ccccc4)c3)CC2)nc2ccccc12 [Example 1148, cis-N-(biphenyl-3-ylmethyl)-4-{[4-(dimethylamino)quinazolin-2-yl]amino}cyclohexanecarboxamide] | < 50 |
| CN(C)c1nc(N[C@H]2CC[C@@H](NC(=O)c3cccnc3Oc3cccc(OC(F)(F)F)c3)CC2)nc2ccccc12 [Example 1036, N-(cis-4-{[4-(dimethylamino)quinazolin-2-yl]amino}cyclohexyl)-2-[3-(trifluoromethoxy)phenoxy]nicotinamide] | < 50 |
| Cc1c(Cl)cccc1CNC(=O)[C@H]1CC[C@@H](Nc2nc(N(C)C)c3ccccc3n2)CC1 [Example 1144, cis-N-(3-chloro-2-methylbenzyl)-4-{[4-(dimethylamino)quinazolin-2-yl]amino}cyclohexanecarboxamide] | < 50 |
